Here are results for 7 compounds from US9617545B2, “Method for treating breast cancer by targeting breast cancer stem cell” (KYUNGPOOK NATIONAL UNIVERSITY INDUSTRY-ACADEMIC COOPERATION …, priority 2014, dated 2017).

In series [1] the test system is MCF7/ADR cells. In words: qRT-PCR of CSC, resistance and EMT markers after siRNA silencing. It counts as cell-based, human. The conditions noted are these: for mRNA expression of markers (CD44, N-cadherin): FIG. 8B; for mRNA expression of markers (CD44, Integrin-α6, P-gp, Vimentin, N-cadherin, E-cadherin): FIG. 8A. As to the method:
Total RNAs were extracted from the cultured cells using a TRIzoL reagent (Invitrogen), and cDNAs were synthesized using a cDNA synthetic kit (Promega) for reverse transcription-PCR.
In this case, the real-time PCR was performed in a Bio-Rad Real-Time PCR system using a SYBR Green PCR Master mix (Applied Biosystems), and the data was obtained by calculating an average value for separate experiments performed in at least triplicate.
(§1) siRNA transfection was performed using a Neon® Transfection system (Life technologies). After 48 hours, the expression of each gene was analyzed using qRT-PCR.
Therefore, to determine whether EXT1, LDHB, CD109, EFEMP2, RASIP1, and SERPINE1 were associated with the aggressive phenotype of cancer, the mRNA expression levels of cancer stem cell markers (CD44, and Integrin-α6 (ITGA6)), a resistance marker (P-gp), and EMT markers (Vimentin, N-cadherin, and E-cadherin) were determined using qRT-PCR.
For orientation: In qPCR the cycle at which signal appears reflects the starting amount.

The test system of a further series is P-glycoprotein (P-gp). Put plainly: Western blotting of P-gp after siRNA knockdown in MCF7/ADR cells. It counts as cell-based, human. The conditions noted are these: gene silenced with siRNA 20 nM, FIG. 7. As to the method: (§2) Proteins were electrophoresed on SDS-PAGE, and the separated proteins were transferred to a nitrocellulose membrane (Whatman), and then blocked at room temperature for 15 minutes in a TBS-5% non-fat milk solution supplemented with 0.1% Tween-20. The membrane was cultured overnight with a primary antibody at 4° C., cultured with a horseradish peroxidase-conjugated secondary antibody at room temperature for an hour, and developed using a West Pico chemiluminescent substrate (PIERCE).
(§3) The primary antibodies used herein were P-gp (Cell Signaling Technology, #12683, 1:1000), p-PI3K (Santa Cruz Biotechnology, sc-12929, 1:500), PI3K (Santa Cruz Biotechnology, sc-1637, 1:500), p-Akt (Cell Signaling Technology, #9271, 1:1000), Akt (Cell Signaling Technology, #9272, 1:1000), β-catenin (Cell Signaling Technology, #9562, 1:1000), and β-actin (Santa Cruz Biotechnology, sc-47778, 1:500).
as §1
To further evaluate whether the six genes finally screened in Example 4 regulated the drug resistance and the size and number of CSC populations, the genes were knocked down with siRNA, and an expression level of P-gp was determined using western blotting. That is, the MCF7/ADR cells were transfected with siRNA of each gene, and an expression level of P-gp was measured.

The test system of series [2] is MCF7/ADR cells. Put plainly: CD44+/CD24− assay (flow cytometric assay) after siRNA silencing. It counts as cell-based, human. The conditions noted are these: for number of the cancer stem cells: genes silenced in the resistant cells, summary statement; for CD44+/CD24− population decreased by: MCF7/ADR cells transfected with siRNA, FIG. 9A. As for the experimental part: To detect cancer stem cells (CSCs) in the MCF7 and MCF7/ADR cells, a breast cancer stem cell surface antigen, CD44+/CD24−, was assayed.
Specifically, the 1×10^6 cells were labeled with anti-human CD44-APC and CD24-PE (BD biosciences). In this case, the antibody was diluted with a 5% BSA solution. The cells were cultured at room temperature for 25 minutes, washed, re-suspended in […] of 5% BSA, and then detected using BD FACS Aria III.
as §1

For series [3], the system named is PI3K-β-catenin signaling pathway. Put plainly: Western blot of PI3K-β-catenin signaling pathway factors after siRNA treatment. It counts as cell-based, human. The conditions noted are these: MCF7/ADR cells treated with siRNA; FIG. 11. As to the method:
as §2, §3, §1
Wnt signaling is a major pathway for maintaining stemness, and β-catenin is a particularly important regulator. Also, since the PI3K-Akt signaling pathway is known from previous research to regulate a Wnt-β-catenin signaling pathway, it was determined how the EXT1 and LDHB genes regulated the stemness, and whether the EXT1 and LDHB genes were associated with the pathways.
Therefore, it was confirmed that, when the MCF7/ADR cells were treated with siRNAs against the EXT1, LDHB, CD109, EFEMP2, RASIP1 and SERPINE1 genes (Table 3), the expression of β-catenin decreased, and the expression of phosphorylated PI3K (p-PI3K) in an active form of PI3K, and phosphorylated Akt (p-Akt) in an active form of Akt […] (see FIG. 11).

Another series has as its system common cancer cells. Put plainly: Cell viability of common cancer cells under gene expression inhibitor. Conditions: treatment with the gene expression inhibitor; summary statement. It counts as cell-based.
For series [4], the system named is MCF7/ADR cells. Put plainly: Mammosphere formation assay after siRNA silencing. It counts as cell-based, human. The conditions noted are these: for self-proliferation ability: genes silenced in the resistant cells, summary statement; for number and size of the mammospheres: MCF7/ADR cells, compared to the control, FIG. 10. As for the experimental part:
Since the breast cancer stem cells formed a mass of colonies in the form of floating spheres without attaching to a surface of a plate, the size and number of the masses were observed by a mammosphere formation assay to determine a cancer-stem-cell-specific effect.
Specifically, a single-cell suspension was cultured at a density of 1,000 to 15,000 cells/well (on an ultralow attachment culture plate (Corning CoStar)) using a MammoCult™ Human Medium kit (Stem Cell Technologies), and the spherical cells were counted and observed under a microscope.
as §1
To determine whether the EXT1 and LDHB regulated the self-renewal capacity of CSCs in the MCF7/ADR cells, a mammosphere formation assay was performed.

Series [5] deals with MCF7/ADR cells. Put plainly: ALDEFLUOR assay (ALDH+ population) after siRNA silencing. Conditions: MCF7/ADR cells transfected with siRNA; FIG. 9B. It counts as cell-based, human. As to the method: Specifically, the cells were stained with […] bodipyaminoacetaldehyde (BAAA), and then cultured at 37° C. for 45 minutes. An ALDH1 inhibitor, diethylaminobenzaldehyde (DEAB), was used as the negative control. The 1 ×10^6 stained cells were assayed using BD FACS Aria III. In this case, the positive fluorescent ALDH1-expressed cells (ALDH+) were detected in a green fluorescent channel (520 to 540 nm).
as §1

The next series has as its system xenografted tumor. The conditions noted are these: administered to an animal into which tumor has been xenografted; cited from earlier work.

As for “siSERPINE1: siRNA against SERPINE1 gene (Bioneer siRNA No. 1135690); sense SEQ ID NO: 11, anti-sense SEQ ID NO: 12 (sense CACACAAAAGGUAUGAUCA; antisense UGAUCAUACCUUUUGUGUG; listed as RNA, chemistry not given here)”, in the series with MCF7/ADR cells [1], the “mRNA expression of markers (CD44, N-cadherin)” value is on record as “reduced”. The “expression of P-glycoprotein” value in the series with P-glycoprotein (P-gp) is given as “down-regulated”. Also, the “number of the cancer stem cells” value in the series with MCF7/ADR cells [2] is “decreased”. For the same compound, in series [3], the “expression of phosphorylated Akt (p-Akt)” value is listed as “increased”, the “expression of phosphorylated PI3K (p-PI3K)” value (shortened to “expression … (p-PI3K)”) is on record as “increased” and the “expression of β-catenin” value is “decreased”. Also, the “cell viability of common cancer cells” value with common cancer cells is recorded as “no change”. In the series with MCF7/ADR cells [4], the self-proliferation ability result is “lowered”.

For “siEXT1: siRNA against EXT1 gene (Bioneer siRNA No. 1049149); sense SEQ ID NO: 1, anti-sense SEQ ID NO: 2 (sense CACUUCUGGAUAACUCUA; antisense UAGAGUUAUCCCAGAAGUG; listed as RNA, chemistry not given here)”, the “mRNA expression of markers (CD44, Integrin-α6, P-gp, Vimentin, N-cadherin, E-cadherin)” value in the series on MCF7/ADR cells [1] is recorded as “reduced”. Besides, in the series on P-glycoprotein (P-gp), the “expression of P-glycoprotein” value was “down-regulated”. Moreover, in the series on MCF7/ADR cells [2], the “CD44+/CD24− population decreased by” value was “approximately 5.09%” and the “number of the cancer stem cells” value is listed as “decreased”. Further, the “ALDH+ population decreased by” value in the series with MCF7/ADR cells [5] is recorded as “approximately 2.1%”. For the same compound, in series [3], the “expression of phosphorylated Akt (p-Akt)” value is given as “increased”, the “expression … (p-PI3K)” value is given as “increased” and the “expression of β-catenin” value is on record as “decreased”. Besides, in the series on common cancer cells, the “cell viability of common cancer cells” value is reported as “no change”. Further, in the series with MCF7/ADR cells [4], the “number and size of the mammospheres” value is given as “significantly reduced”; the self-proliferation ability entry is given as “lowered”.

For “siCD109: siRNA against CD109 gene (Bioneer siRNA No. 1027641); sense SEQ ID NO: 5, anti-sense SEQ ID NO: 6 (sense GAGUACUGGAGCGGAUCUA; antisense UAGAUCCGUCCAGUACUC; listed as RNA, chemistry not given here)”, the “mRNA expression of markers (CD44, N-cadherin)” value in the series on MCF7/ADR cells [1] is listed as “reduced”. In addition, the “expression of P-glycoprotein” value in the series on P-glycoprotein (P-gp) is recorded as “down-regulated”. In addition, the “number of the cancer stem cells” value in the series with MCF7/ADR cells [2] was “decreased”. Besides, in series [3], the “expression of phosphorylated Akt (p-Akt)” value is listed as “increased”, the “expression … (p-PI3K)” value is listed as “increased” and the “expression of β-catenin” value is on record as “decreased”. For the same compound, in the series with common cancer cells, the “cell viability of common cancer cells” value was “no change”. The self-proliferation ability entry with MCF7/ADR cells [4] is “lowered”.

Consider “siLDHB: siRNA against LDHB gene (Bioneer siRNA No. 1083399); sense SEQ ID NO: 3, anti-sense SEQ ID NO: 4 (sense GAUUCAUCCCGUGUCAACA; antisense UGUUGACACGGGAUGAAUC; listed as RNA, chemistry not given here)”, for which, in the series with MCF7/ADR cells [1], the “mRNA expression of markers (CD44, Integrin-α6, P-gp, Vimentin, N-cadherin, E-cadherin)” value is reported as “reduced”. Besides, the “expression of P-glycoprotein” value in the series on P-glycoprotein (P-gp) is given as “down-regulated”. Moreover, in the series with MCF7/ADR cells [2], the “CD44+/CD24− population decreased by” value was ~5.52% and the “number of the cancer stem cells” value is reported as “decreased”. Further, the “ALDH+ population decreased by” value in the series on MCF7/ADR cells [5] is ~3.21%. In addition, in series [3], the “expression of phosphorylated Akt (p-Akt)” value is “increased”, the “expression … (p-PI3K)” value is given as “increased” and the “expression of β-catenin” value is reported as “decreased”. Moreover, in the series on common cancer cells, the “cell viability of common cancer cells” value was “no change”. Moreover, in the series on MCF7/ADR cells [4], the “number and size of the mammospheres” value is “significantly reduced”; the self-proliferation ability entry was “lowered”.

In the case of `CC1=C2C[C@H]3[C@@H](CC=C4C[C@@H](O)CC[C@@]43C)[C@@H]2CC[C@]12O[C@@H]1C[C@H](C)CN[C@H]1[C@H]2C` [cyclopamine], in the series on xenografted tumor, the “tumor size in xenografted animal” value was “dramatically contracted”.

On to “siEFEMP2: siRNA against EFEMP2 gene (Bioneer siRNA No. 1045872); sense SEQ ID NO: 7, anti-sense SEQ ID NO: 8 (sense CCCAAACCUGUGUCAACUU; antisense AAGUUGACACAGGUUUGGG; listed as RNA, chemistry not given here)”, for which the “mRNA expression of markers (CD44, N-cadherin)” value in the series on MCF7/ADR cells [1] is listed as “reduced”. Further, the “expression of P-glycoprotein” value in the series with P-glycoprotein (P-gp) is on record as “down-regulated”. The “number of the cancer stem cells” value with MCF7/ADR cells [2] was “decreased”. For the same compound, in series [3], the “expression of phosphorylated Akt (p-Akt)” value is listed as “increased”, the “expression … (p-PI3K)” value is on record as “increased” and the “expression of β-catenin” value is on record as “decreased”. For the same compound, in the series on common cancer cells, the “cell viability of common cancer cells” value is “no change”. Further, in the series with MCF7/ADR cells [4], the self-proliferation ability result was “lowered”.

Regarding “siRASIP1: siRNA against RASIP1 gene (Bioneer siRNA No. 1126933); sense SEQ ID NO: 9, anti-sense SEQ ID NO: 10 (sense CUGGAUAGUAACCCUUUCA; antisense UGAAAGGGUUACUAUCCAG; listed as RNA, chemistry not given here)”, in the series on MCF7/ADR cells [1], the “mRNA expression of markers (CD44, N-cadherin)” value is on record as “reduced”. Moreover, the “expression of P-glycoprotein” value in the series with P-glycoprotein (P-gp) was “down-regulated”. Besides, in the series with MCF7/ADR cells [2], the “number of the cancer stem cells” value was “decreased”. Besides, in series [3], the “expression of phosphorylated Akt (p-Akt)” value was “increased”, the “expression … (p-PI3K)” value is recorded as “increased” and the “expression of β-catenin” value was “decreased”. The “cell viability of common cancer cells” value in the series with common cancer cells is on record as “no change”. The self-proliferation ability entry with MCF7/ADR cells [4] is “lowered”.
